The target in the test is NLRP3 (Homo sapiens, UniProt Q96P20). Nature of the test: Human whole blood (hWB) NLRP3 Assay.
Sequence of NLRP3 (Q96P20 whole entry): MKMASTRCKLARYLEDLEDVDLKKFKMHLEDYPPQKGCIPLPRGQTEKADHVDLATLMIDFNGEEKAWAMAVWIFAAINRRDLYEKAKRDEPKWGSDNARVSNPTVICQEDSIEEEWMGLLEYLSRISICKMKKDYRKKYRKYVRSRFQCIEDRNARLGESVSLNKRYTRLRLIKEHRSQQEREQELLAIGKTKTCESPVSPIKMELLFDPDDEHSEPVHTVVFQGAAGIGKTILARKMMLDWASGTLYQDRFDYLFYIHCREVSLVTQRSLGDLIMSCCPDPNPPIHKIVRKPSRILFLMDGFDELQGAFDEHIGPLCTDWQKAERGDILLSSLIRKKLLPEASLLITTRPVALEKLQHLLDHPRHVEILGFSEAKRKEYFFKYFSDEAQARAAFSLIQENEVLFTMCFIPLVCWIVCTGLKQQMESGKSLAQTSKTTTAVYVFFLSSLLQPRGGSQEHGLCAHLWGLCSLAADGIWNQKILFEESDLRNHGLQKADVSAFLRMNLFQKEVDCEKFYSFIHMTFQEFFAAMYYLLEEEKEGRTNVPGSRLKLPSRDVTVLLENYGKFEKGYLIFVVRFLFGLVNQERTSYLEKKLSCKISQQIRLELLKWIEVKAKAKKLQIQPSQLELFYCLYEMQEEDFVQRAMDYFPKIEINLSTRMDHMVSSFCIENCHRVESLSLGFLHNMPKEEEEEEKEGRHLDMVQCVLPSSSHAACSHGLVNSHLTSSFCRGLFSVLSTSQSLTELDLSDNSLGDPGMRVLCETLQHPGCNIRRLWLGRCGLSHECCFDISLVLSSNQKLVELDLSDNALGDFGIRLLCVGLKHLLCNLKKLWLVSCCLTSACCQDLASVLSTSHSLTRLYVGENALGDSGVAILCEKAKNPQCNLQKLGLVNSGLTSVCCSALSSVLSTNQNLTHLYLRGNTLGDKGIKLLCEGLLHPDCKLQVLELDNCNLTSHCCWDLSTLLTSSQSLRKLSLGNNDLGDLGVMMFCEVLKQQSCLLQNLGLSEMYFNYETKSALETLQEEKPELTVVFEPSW

Description: Heparin lithium coated tubes were used to collect blood from volunteers. Blood samples were distributed on 96 well plates using 90 μl per well. […] Human whole blood was drawn from healthy volunteers after obtaining written informed consent.

As usually defined, the IC50 is the concentration at which inhibition is half-maximal. `Clc1ccc(-c2nnc(NCC3CCCO3)c3ccncc23)cc1` (stereo not shown) had an IC50 of 42 µM.

The record behind these values is patent US12312350B2, “Compounds for inhibiting NLRP3 and uses thereof” (Ventus Therapeutics U.S., Inc., priority 2021, dated 2025).
